Target: unphosphorylated-BTK kinase domain (UP-BTK), GST-tagged human BTK (389-659aa) (Homo sapiens (Human), UniProt Q06187)
Assay: BTK kinase Lanthascreen binding assay
Settings: Lanthascreen tracer competition, 60 minutes incubation; pIC50 = negative log of the IC50 in molar
Outline: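 Measures how well compounds compete with a fluorescence-labelled tracer for binding to BTK in its unphosphorylated state. IC50 values were fitted and expressed as pIC50 (negative logarithm of the molar IC50).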

Sequence of unphosphorylated-BTK kinase domain (UP-BTK), GST-tagged human BTK (389-659aa) (Q06187 389-659): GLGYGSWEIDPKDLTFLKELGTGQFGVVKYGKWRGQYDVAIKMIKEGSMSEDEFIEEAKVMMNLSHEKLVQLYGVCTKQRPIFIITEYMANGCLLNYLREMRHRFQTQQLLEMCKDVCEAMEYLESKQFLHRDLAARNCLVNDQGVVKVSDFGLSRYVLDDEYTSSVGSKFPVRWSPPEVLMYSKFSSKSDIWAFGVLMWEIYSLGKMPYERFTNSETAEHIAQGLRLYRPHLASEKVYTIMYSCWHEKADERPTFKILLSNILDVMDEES

SMILES | BTK_I_binding pIC50
Cc1cc(OC(C)C)ccc1N1C(=O)Nc2c(C(=O)N[C@@H]3CCCN(C(=O)/C=C/CN4C[C@@H]5OCCO[C@@H]5C4)C3)sc3nccc1c23 [Example 608, 5-(4-Isopropoxy-2-methylphenyl)-4-oxo-N—((R)-1-((E)-4-((4aR,7aS)-tetrahydro-2H-[1,4]dioxino[2,3-c]pyrrol-6(3H)-yl)but-2-enoyl)piperidin-3-yl)-4,5-dihydro-3H-1-thia-3,5,8-triazaacenaphthylene-2-carboxamide] | 6.2
C=CC(=O)N1CCC[C@@H](NC(=O)c2sc3nccc4c3c2NC(=O)N4c2ccc(OC(C)C)nc2C)C1 [Example 732, (R)—N-(1-Acryloylpiperidin-3-yl)-5-(6-isopropoxy-2-methylpyridin-3-yl)-4-oxo-4,5-dihydro-3H-1-thia-3,5,8-triazaacenaphthylene-2-carboxamide] | <6
CN[C@H](C)C(=O)N1CCC[C@@H](NC(=O)c2sc3nccc4c3c2NC(=O)N4c2ccc(Oc3ccccc3)cc2C)C1 [Example 848, 5-(2-Methyl-4-phenoxyphenyl)-N—((R)-1-((R)-2-(methylamino)propanol)piperidin-3-yl)-4-oxo-4,5-dihydro-3H-1-thia-3,5,8-triazaacenaphthylene-2-carboxamide] | 7.6
Cc1cc(Oc2ccccc2)ccc1N1C(=O)Nc2c(C(=O)N[C@@H]3CCN(C(=O)/C(C#N)=C/C(C)(C)C)C3)sc3nccc1c23 [Example 868, (R,E)-N-(1-(2-Cyano-4,4-dimethylpent-2-enoyl)pyrrolidin-3-yl)-5-(2-methyl-4-phenoxyphenyl)-4-oxo-4,5-dihydro-3H-1-thia-3,5,8-triazaacenaphthylene-2-carboxamide] | 7.3
O=C(N[C@@H]1CCCNC1)c1sc2nccc3c2c1NC(=O)N3c1ccnc(C2CCC2)c1 [Example 634, (R)-5-(2-Cyclobutylpyridin-4-yl)-4-oxo-N-(piperidin-3-yl)-4,5-dihydro-3H-1-thia-3,5,8-triazaacenaphthylene-2-carboxamide] | 5.8
Cc1nc(Oc2ccccc2)ccc1N1C(=O)Nc2c(C(=O)N[C@@H]3CCNC3)sc3nccc1c23 (single isomer, unassigned) [Example 728, (R)-5-(*R)-(2-Methyl-6-phenoxypyridin-3-yl)-4-oxo-N-(pyrrolidin-3-yl)-4,5-dihydro-3H-1-thia-3,5,8-triazaacenaphthylene-2-carboxamide] | <6
COc1ccccc1Oc1ccc(N2C(=O)Nc3c(C(=O)NC4CCCN(C(=O)/C(C#N)=C/C(C)(C)C)C4)sc4nccc2c34)c(C)c1 (centres unmarked) [Example 896, (E)-N-(1-(2-Cyano-4,4-dimethylpent-2-enoyl)piperidin-3-yl)-5-(4-(2-methoxyphenoxy)-2-methylphenyl)-4-oxo-4,5-dihydro-3H-1-thia-3,5,8-triazaacenaphthylene-2-carboxamide] | 6.9
C=CC(=O)N1CCC[C@@H](NC(=O)c2sc3nccc4c3c2NC(=O)N4c2cc(-c3ccccc3)ncn2)C1 [Example 685, (R)—N-(1-Acryloylpiperidin-3-yl)-4-oxo-5-(6-phenylpyrimidin-4-yl)-4,5-dihydro-3H-1-thia-3,5,8-triazaacenaphthylene-2-carboxamide] | 8.1
CCN1CCCC(C(=O)Nc2sc3nccc4c3c2NC(=O)N4c2ccc(Oc3ccccc3)cc2C)C1 (centres unmarked) [Example 821, 1-Ethyl-N-(5-(2-methyl-4-phenoxyphenyl)-4-oxo-4,5-dihydro-3H-1-thia-3,5,8-triazaacenaphthylen-2-yl)piperidine-3-carboxamide] | 5.8
C=CC(=O)N1CCC[C@@H](NC(=O)c2sc3nccc4c3c2NC(=O)N4c2ccc(O[C@@H]3CCOC3)cc2C)C1 [Example 787, N—((R)-1-Acryloylpiperidin-3-yl)-5-(2-methyl-4-(((R)-tetrahydrofuran-3-yl)oxy)phenyl)-4-oxo-4,5-dihydro-3H-1-thia-3,5,8-triazaacenaphthylene-2-carboxamide] | 6.6
C=CC(=O)N1CCC[C@@H](NC(=O)c2sc3nccc4c3c2NC(=O)N4c2ccc(S(=O)(=O)C(C)(C)C)cc2)C1 [Example 641, (R)—N-(1-Acryloylpiperidin-3-yl)-5-(4-(tert-butylsulfonyl)phenyl)-4-oxo-4,5-dihydro-3H-1-thia-3,5,8-triazaacenaphthylene-2-carboxamide] | 5.6

Same assay, conditions: pIC50 = negative log of the IC50 in molar; 60 minutes incubation, 50 nM Tracer 236

SMILES | BTK_I_binding pIC50
C=CC(=O)N1CCC[C@@H](NC(=O)c2sc3nccc4c3c2NC(=O)N4c2ccc(OC3CC3)cc2C)C1 [Example 51, (R)—N-(1-Acryloylpiperidin-3-yl)-5-(4-cyclopropoxy-2-methylphenyl)-4-oxo-4,5-dihydro-3H-1-thia-3,5,8-triazaacenaphthylene-2-carboxamide] | 7.5
C=CC(=O)N1CCC[C@@H](NC(=O)c2sc3nccc4c3c2NC(=O)N4c2c(C)cc(Oc3ccccc3)cc2F)C1 [Example 20, (R)—N-(1-Acryloylpiperidin-3-yl)-5-(2-fluoro-6-methyl-4-phenoxyphenyl)-4-oxo-4,5-dihydro-3H-1-thia-3,5,8-triazaacenaphthylene-2-carboxamide] | 7.4
Cc1cc(Oc2ccccc2)ccc1N1C(=O)Nc2c(C(=O)N[C@H]3CCCOC3)sc3nccc1c23 [Example 67, (S)-5-(2-Methyl-4-phenoxyphenyl)-4-oxo-N-(tetrahydro-2H-pyran-3-yl)-4,5-dihydro-3H-1-thia-3,5,8-triazaacenaphthylene-2-carboxamide] | 7.5
C=CC(=O)N1CC[C@@H](NC(=O)c2sc3nccc4c3c2NC(=O)N4c2ccc(Oc3ccccc3)cc2Cl)C1 [Example 12, (R)—N-(1-Acryloylpyrrolidin-3-yl)-5-(2-chloro-4-phenoxyphenyl)-4-oxo-4,5-dihydro-3H-1-thia-3,5,8-triazaacenaphthylene-2-carboxamide] | 7.7
Cc1cc(Oc2ccccc2)ccc1N1C(=O)Nc2c(C(=O)NC3CCCCN(C)C3)sc3nccc1c23 (centres unmarked) [Example 206, 5-(2-Methyl-4-phenoxyphenyl)-N-(1-methylazepan-3-yl)-4-oxo-4,5-dihydro-3H-1-thia-3,5,8-triazaacenaphthylene-2-carboxamide] | 7.1
Cc1cc(Oc2ccccc2)ccc1N1C(=O)Nc2c(C(=O)N[C@H]3CN(C)C[C@H]3O)sc3nccc1c23 [Example 200, N-((3S,4R)-4-Hydroxy-1-methylpyrrolidin-3-yl)-5-(2-methyl-4-phenoxyphenyl)-4-oxo-4,5-dihydro-3H-1-thia-3,5,8-triazaacenaphthylene-2-carboxamide] | 6.6

Same assay, conditions: unphosphorylated-BTK kinase domain, 50 nM Tracer 236, 60 minutes; pIC50 = negative log of the IC50 in molar

SMILES | BTK_I_binding pIC50
CC(=O)N/C=C\C(=O)N1CCC[C@@H](NC(=O)c2sc3nccc4c3c2NC(=O)N4c2ccc(Oc3ccccc3)cc2C)C1 [Example 364, (R,Z)—N-(1-(3-Acetamidoacryloyl)piperidin-3-yl)-5-(2-methyl-4-phenoxyphenyl)-4-oxo-4,5-dihydro-3H-1-thia-3,5,8-triazaacenaphthylene-2-carboxamide] | 6.8
C=CC(=O)N1CC[C@@H](NC(=O)c2sc3nccc4c3c2NC(=O)N4c2nnc(Oc3ccccc3)cc2C)C1 [Example 351, (R)—N-(1-Acryloylpyrrolidin-3-yl)-5-(4-methyl-6-phenoxypyridazin-3-yl)-4-oxo-4,5-dihydro-3H-1-thia-3,5,8-triazaacenaphthylene-2-carboxamide] | <5
C=CC(=O)N1CCC[C@@H](NC(=O)c2sc3nccc4c3c2NC(=O)N4c2cccc(-c3ccccc3C(F)(F)F)c2)C1 [Example 563, (R)—N-(1-Acryloylpiperidin-3-yl)-4-oxo-5-(2′-(trifluoromethyl)-[1,1′-biphenyl]-3-yl)-4,5-dihydro-3H-1-thia-3,5,8-triazaacenaphthylene-2-carboxamide] | 7.0
C=CC(=O)N1CCC[C@@H](NC(=O)c2sc3nccc4c3c2NC(=O)N4c2cccc(-c3ccccn3)c2)C1 [Example 540, (R)—N-(1-Acryloylpiperidin-3-yl)-4-oxo-5-(3-(pyridin-2-yl)phenyl)-4,5-dihydro-3H-1-thia-3,5,8-triazaacenaphthylene-2-carboxamide] | 7.2
Cc1cc(Oc2ccccc2)ccc1N1C(=O)Nc2c(C(=O)NC[C@@H]3CCCCN3)sc3nccc1c23 [Example 310, (S)-5-(2-Methyl-4-phenoxyphenyl)-4-oxo-N-(piperidin-2-ylmethyl)-4,5-dihydro-3H-1-thia-3,5,8-triazaacenaphthylene-2-carboxamide] | 6.0

Same assay, conditions: unphosphorylated-BTK kinase domain, 60 minutes incubation, 50 nM Tracer 236; pIC50 = negative log of the IC50 in molar

SMILES | BTK_I_binding pIC50
O=C(NC1CCCN(C(=O)CCCl)C1)c1sc2nccc3c2c1NC(=O)N3c1ccc(Oc2ccccc2)cn1 (stereo in doubt) [Example 906, (R)—N-(1-(3-Chloropropanoyl)piperidin-3-yl)-4-oxo-5-(5-phenoxypyridin-2-yl)-4,5-dihydro-3H-1-thia-3,5,8-triazaacenaphthylene-2-carboxamide] | 6.7
Cc1ccccc1N1C(=O)Nc2c(C(=O)N[C@H]3CCCN(C(=O)/C(C#N)=C/C4CC4)C3)sc3nccc1c23 [Example 942, (S,E)-N-(1-(2-Cyano-3-cyclopropylacryloyl)piperidin-3-yl)-4-oxo-5-(o-tolyl)-4,5-dihydro-3H-1-thia-3,5,8-triazaacenaphthylene-2-carboxamide] | 5.6
O=C(NCCN1CCOCC1)c1sc2nccc3c2c1NC(=O)N3c1ccc(Oc2ccccc2)cc1 [Example 933, N-(2-Morpholinoethyl)-4-oxo-5-(4-phenoxyphenyl)-4,5-dihydro-3H-1-thia-3,5,8-triazaacenaphthylene-2-carboxamide] | 6.1
O=C(N[C@@H]1CCCNC1)c1sc2nccc3c2c1NC(=O)N3c1cccc(-c2cccnc2)c1 [Example 937, (R)-4-Oxo-N-(piperidin-3-yl)-5-(3-(pyridin-3-yl)phenyl)-4,5-dihydro-3H-1-thia-3,5,8-triazaacenaphthylene-2-carboxamide] | 6.0
